For data set [1] the following is noted: cited from earlier work.
The next data set relates to L-1210 leukemia. The note with it: 30 to 40 mg/kg dosage; cited from earlier work.
The next data set has as its system P-388 tumor. The note with it: cited from earlier work; for life-span of mice bearing i.p. implanted P-388 tumor: control animals 10 days.
A further data set relates to Strep. pyogens. In words: Autotiter in vitro antibacterial test, Strep. pyogens. The format is cell-based. Particulars: Streptococcus pyogenes, 18-20 hours at 37° C., read-out: minimal inhibitory concentration (MIC). On the procedure:
(§1) The antibacterial activity of the compounds of formula I was determined using a modification of the Autotiter® method described by Goss et al. [Applied Microbiology 16 (9), 1414-1416 (1968)] in which a 1,000 mcg./ml. solution of the test compound is prepared. To the first cup of the Autotray® is added 0.1 ml. of the test solution. Activation of the Autotiter initiates a sequence of operations by which 0.05 ml. of the test compound solution is withdrawn from the cup by a Microtiter® transfer loop and diluted in 0.05 ml. of sterile water. Following this operation, 0.05 ml. of inoculated double-strength semisynthetic medium (glucose) is added automatically to each cup. The overall operation results in final drug concentrations ranging from 500 to 0.06 mcg./ml. in twofold decrements. The Autotray is incubated for 18-20 hours at 37° C. at which time the trays are examined visually for growth as evidenced by turbidity, and the concentration of the last sample in the series showing no growth (or no turbidity) is recorded as the minimal inhibitory concentration (MIC) in mcg./ml. The compounds were thus tested as solutions and found active in the range of 7.8 to 125 mcg./ml. (MIC) against one or more of various gram positive and gram negative bacteria including Staphylococcus aureus, Proteus mirabilis, Escherichia coli, Klebsiella pneumoniae and Streptococcus pyogenes.

The next data set relates to Kleb. pneumoniae. As to the kind of experiment: Autotiter in vitro antibacterial test, Kleb. pneumoniae. The data set is classed as cell-based. The note with it: Klebsiella pneumoniae, 18-20 hours at 37° C., read-out: minimal inhibitory concentration (MIC). As for the experimental part: as §1
The next data set concerns E. coli (Vogel). In words: Autotiter in vitro antibacterial test, E. coli (Vogel). The format is cell-based. Particulars: Escherichia coli, 18-20 hours at 37° C., read-out: minimal inhibitory concentration (MIC). On the procedure: as §1
In the next data set the test system is S. aureus (Smith). As to the kind of experiment: Autotiter in vitro antibacterial test, S. aureus (Smith). The format is cell-based. Particulars: Staphylococcus aureus, 18-20 hours at 37° C., read-out: minimal inhibitory concentration (MIC). As for the experimental part: as §1
For the next data set, the system named is E. coli (1100/B22). In words: Autotiter in vitro antibacterial test, E. coli (1100/B22). The data set is classed as cell-based. The note with it: Escherichia coli, 18-20 hours at 37° C., read-out: minimal inhibitory concentration (MIC). On the procedure: as §1
The subject of a further data set is Prot. mirabilis. As to the kind of experiment: Autotiter in vitro antibacterial test, Prot. mirabilis. The format is cell-based. The note with it: Proteus mirabilis, 18-20 hours at 37° C., read-out: minimal inhibitory concentration (MIC). On the procedure:
as §1

≈ marks a conversion by molar mass, not a printed value. Like-named read-outs stand apart in the source and are kept apart here.

Turning to `CN(C)N=Nc1cnc2ccccc2c1` [3,3-dimethyl-1-(3'-quinolinyl)triazene], the “stability of crude product on drying” value in data set [1] (allowed to dry while crude) is given as “decomposes in a puff of smoke”. Further, the “stability of crude product” value in data set [1] (crude product) is given as “Crude product is very unstable”. Besides, the stability during microanalysis result in data set [1] (during microanalysis) is given as “Explodes during microanalysis”. In addition, the “stability of purified material on storage” value in data set [1] (purified material, on storage) is on record as “darkens rapidly, but less dramatically, on storage”.

Take `CN(C)N=Nc1ccnc2ccc(Br)cc12` [Example 6-bromo]: in the data set on L-1210 leukemia, the “activity against mouse L-1210 leukemia (in words)” value is “active” and the “increase of life-span, mouse L-1210 leukemia” value (from here on “increase of life-span”) is listed as 50%. For the same molecule, the “activity against P-388 tumor (in words)” value with P-388 tumor (up to 40 mg/kg) was “inactive”.

Consider `CN(C)N=Nc1ccnc2ccc(Cl)cc12` [Example 6-chloro, 6-chloro-4-(3,3-dimethyl-1-triazeno)quinoline], for which, in the data set with P-388 tumor (i.p. dosage of 30 mg/kg), the “activity against P-388 tumor (in words)” value is “active” and the “life-span of mice bearing i.p. implanted P-388 tumor” value is 16 to 18 days.

In the case of `CN(C)N=Nc1ccnc2ccc(I)cc12` [Example 6-iodo], in the data set on P-388 tumor (up to 40 mg/kg), the “activity against P-388 tumor (in words)” value was “inactive”.

On to `CN(C)N=Nc1ccnc2cc(Br)ccc12` [Example 7-bromo], for which the “activity against P-388 tumor (in words)” value in the data set on P-388 tumor (up to 40 mg/kg) was “inactive”.

In the case of `CN(C)N=Nc1ccnc2cc(Cl)ccc12` [Example 7-chloro, 7-chloro-4-(3,3-dimethyl-1-triazeno)quinoline], in the data set with P-388 tumor (i.p. dosage of 30 mg/kg), the “activity against P-388 tumor (in words)” value was “active” and the “life-span of mice bearing i.p. implanted P-388 tumor” value was 16 to 18 days.

Consider `CN(C)N=Nc1ccnc2c(Br)cccc12` [Example 8-bromo], for which, in the data set with L-1210 leukemia, the “activity against mouse L-1210 leukemia (in words)” value is listed as “active” and the “increase of life-span” value is reported as 65%. In the data set with P-388 tumor (up to 40 mg/kg), the “activity against P-388 tumor (in words)” value is “inactive”.

Turning to `CN(C)N=Nc1ccnc2c(Cl)cccc12` [Example 8-chloro, 8-chloro-4-(3,3-dimethyl-1-triazeno)quinoline], in the data set on L-1210 leukemia, the “activity against mouse L-1210 leukemia (in words)” value is “active” and the “increase of life-span” value is listed as 65%. Also, in the data set on P-388 tumor (i.p. dosage of 30 mg/kg), the “activity against P-388 tumor (in words)” value was “active” and the “life-span of mice bearing i.p. implanted P-388 tumor” value was 16 to 18 days.

Take `CCn1cc(C(=O)O)c(=O)c2ccc(N=NN(C)C)cc21` [Example E-1, 1-Ethyl-1,4-dihydro-7-(3,3-dimethyl-1-triazenyl)-4-oxo-3-quinolinecarboxylic Acid]: the MIC was found to be 125 µg/mL (≈ 434 µM) in the data set with Strep. pyogens, 500 µg/mL (≈ 1730 µM) in the data set on Kleb. pneumoniae, 7.8 µg/mL (≈ 27.1 µM) in the data set on E. coli (Vogel) and 15.6 µg/mL (≈ 54.1 µM) with S. aureus (Smith).

Take `CN(C)N=Nc1ccc2c(=O)c(C(=O)O)cn(C)c2c1` [Example E-2, 1,4-Dihydro-1-methyl-7-(3,3-dimethyl-1-triazenyl)-4-oxo-3-quinolinecarboxylic Acid]: the MIC was 62.5 µg/mL (≈ 228 µM) in the data set with Strep. pyogens; above 250 µg/mL in the data set with E. coli (1100/B22); above 125 µg/mL with Kleb. pneumoniae; 125 µg/mL (≈ 456 µM) in the data set with E. coli (Vogel); above 125 µg/mL in the data set on Prot. mirabilis; 62.5 µg/mL (≈ 228 µM) in the data set on S. aureus (Smith).

In the case of `CCCn1cc(C(=O)O)c(=O)c2ccc(N=NN(C)C)cc21` [Example E-3, 1,4-Dihydro-7-(3,3-dimethyl-1-triazenyl)-4-oxo-1-n-propyl-3-quinolinecarboxylic Acid], the MIC was 31.3 µg/mL (≈ 104 µM) with Strep. pyogens; above 62.5 µg/mL with E. coli (1100/B22); above 125 µg/mL in the data set with Kleb. pneumoniae; above 62.5 µg/mL with E. coli (Vogel); above 125 µg/mL with Prot. mirabilis; above 62.5 µg/mL in the data set with S. aureus (Smith).

For `CCCn1cc(C(=O)O)c(=O)c2ccc(N=NN(CC)CC)cc21` [Example E-4, 7-(3,3Diethyl-1-triazenyl)-1,4-dihydro-4-oxo-1-n-propyl-3-quinolinecarboxylic Acid], the MIC with Strep. pyogens is 62.5 µg/mL (≈ 189 µM); in the data set on E. coli (1100/B22) it was above 500 µg/mL; in the data set with Kleb. pneumoniae, above 500 µg/mL; in the data set with E. coli (Vogel), above 500 µg/mL; in the data set on Prot. mirabilis it was above 500 µg/mL; with S. aureus (Smith), 62.5 µg/mL (≈ 189 µM).

Turning to `CCn1cc(C(=O)O)c(=O)c2ccc(N=NN3CCN(C)CC3)cc21` [Example E-5, 1-Ethyl-1,4-dihydro-7-[(4-methyl-1-piperazinyl)azo]-4-oxo-3-quinolinecarboxylic Acid], the MIC with Strep. pyogens was found to be 125 µg/mL (≈ 364 µM); in the data set with Kleb. pneumoniae, 62.5 µg/mL (≈ 182 µM); in the data set on E. coli (Vogel), 15.6 µg/mL (≈ 45.4 µM); in the data set with Prot. mirabilis, 125 µg/mL (≈ 364 µM); with S. aureus (Smith) it was 31.3 µg/mL (≈ 91.2 µM).

The values above are taken from patent US4137227A, “1-Alkyl-1,4-dihydro-4-oxo-7-triazenyl-3-quinolinecarboxylic acids” (Sterling Drug Inc., priority 1977, dated 1979).
